# Literature values, collected in patent US9763897B2, “Therapeutic astaxanthin and phospholipid composition and associated method” (U.S. NUTRACEUTICALS, LLC, priority 2010, dated 2017).
# Tests used:
# [1] = system: LDL cholesterol oxidation; conditions: 4 mg astaxanthin per day for two weeks
# [2] = system: C-Reactive Protein (C-RP)
# [3] = system: LDL cholesterol; conditions: 3.6 mg astaxanthin per day for two weeks
# [4] = system: pro-oxidant activity of Vioxx (membrane lipid per-oxidation); conditions: in vitro
# [5] = system: lens epithelial cells; conditions: umol/L concentrations
# [6] = 6 mg per day, eight weeks, healthy adults
structure (smiles),measurement,setting,value
"CCCCCCCCCCCCCCCC(=O)O[C@H]1CC(C)(C)C(/C=C/C(C)=C/C=C/C(C)=C/C=C/C=C(C)/C=C/C=C(C)/C=C/C2=C(C)C(=O)[C@@H](OC(=O)CCCCCCCCCCCCCCC)CC2(C)C)=C(C)C1=O [3R,3′R-astaxanthin dipalmitate, (3R,3′R-astaxanthin dipalmitate, reference compound]",relative absorption of astaxanthin compared to the other two isomers,"men, Coral-Hinostroza et al. (2004)",higher relative absorption
"CC1=C(/C=C/C(C)=C/C=C/C(C)=C/C=C/C=C(C)/C=C/C=C(C)/C=C/C2=C(C)C(=O)[C@@H](O)CC2(C)C)C(C)(C)C[C@H](O)C1=O [Astaxanthin, 3,3′-dihydroxy-β-β-carotene-4,4′-dione]",reduction of LDL cholesterol oxidation,[1],26%
same,decrease in C-reactive protein scores,[2]; 4 mg astaxanthin for eight weeks,21%
same,drop in serum C-RP levels,"[2]; human subjects with high risk C-RP levels, three months of treatment",43%
same,protection of LDL cholesterol against induced in vitro oxidation,[3],protects LDL cholesterol against induced in vitro oxidation
same,effect on pro-oxidant activity of Vioxx,[4],negate the pro-oxidant activity of Vioxx
same,effect on UVB induced lipid per-oxidative mediated cell damage,[5],suppresses UVB induced lipid per-oxidative mediated cell damage
same,negative effect of supplementation,[6],no negative effect
CC1=C(/C=C/C(C)=C/C=C/C(C)=C/C=C/C=C(C)/C=C/C=C(C)/C=C/C2=C(C)C(=O)[C@@H](O)CC2(C)C)C(C)(C)C[C@H](O)C1=O [free astaxanthin diol],uptake relative to esterified astaxanthin,"human plasma, versus esterified astaxanthin",4-5 times
